Several values for one entry are separate records, joined by “and”; a condition that tells them apart may be missing. Equal entries are not always repeated. Toxic doses and inconclusive results are not listed. No stated cut-off is given here; in the data, active means T/C of 150% or more; inactive means T/C below 125%.
System: L1210 leukemia ip in BDF1 mice, survival T/C
Assay: NCI In Vivo Anticancer Drug Screen. Data for tumor model L1210 Leukemia (intraperitoneal) in B6D2F1 (BDF1) mice
Conditions: endpoint: mean survival time, higher = longer survival
Summary of the method: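 Tumor was transplanted into mice, which were then dosed with test compound or vehicle alone. Survival was recorded for each group, and the treated figure was expressed relative to the control figure.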

[1] = dose: 100.0 mg/kg/injection, schedule: Q04DX003 (ip), vehicle: saline with Tween-80
[2] = dose: 200.0 mg/kg/injection, schedule: Q04DX003 (ip), vehicle: saline with Tween-80
[3] = dose: 100.0 mg/kg/injection, schedule: Q04DX003 (ip), vehicle: saline
[4] = dose: 200.0 mg/kg/injection, schedule: Q04DX003 (ip), vehicle: saline
[5] = dose: 400.0 mg/kg/injection, schedule: Q04DX003 (ip), vehicle: saline
[6] = dose: 100.0 mg/kg/injection, schedule: Q04DX003 (ip), vehicle: Klucel (hydroxypropylcellulose) (HPC)
[7] = dose: 200.0 mg/kg/injection, schedule: Q04DX003 (ip), vehicle: Klucel (hydroxypropylcellulose) (HPC)
[8] = dose: 400.0 mg/kg/injection, schedule: Q04DX003 (ip), vehicle: Klucel (hydroxypropylcellulose) (HPC)
[9] = dose: 100.0 mg/kg/injection, schedule: Q04DX002 (ip), vehicle: Klucel (hydroxypropylcellulose) (HPC)
[10] = dose: 100.0 mg/kg/injection, schedule: Q01DX001 (ip), vehicle: saline
[11] = dose: 200.0 mg/kg/injection, schedule: Q01DX001 (ip), vehicle: saline
[12] = dose: 400.0 mg/kg/injection, schedule: Q01DX001 (ip), vehicle: saline

Measured: T/C

Nc1ccc(NC(=O)C(=O)O)cc1
inactive: [1] 97 % of control | [2] 88 % of control

NCC(=O)NO
inactive: dose: 75.0 mg/kg/injection, schedule: Q01DX009 (ip), vehicle: saline 99 % of control | dose: 90.0 mg/kg/injection, schedule: Q01DX015 (ip), vehicle: water 92 % of control | [3] 108 % of control | dose: 133.0 mg/kg/injection, schedule: Q01DX015 (ip), vehicle: water 94 % of control | dose: 150.0 mg/kg/injection, schedule: Q01DX009 (ip), vehicle: saline 99 % of control | dose: 200.0 mg/kg/injection, schedule: Q01DX015 (ip), vehicle: water 94 % of control | [4] 106 % of control | dose: 300.0 mg/kg/injection, schedule: Q01DX009 (ip), vehicle: saline 92 % of control | [5] 98 % of control

Cc1ccc(Cl)cc1NC(=O)COc1ccc(Cl)cc1Cl
inactive: dose: 100.0 mg/kg/injection, schedule: Q01DX009 (ip), vehicle: saline with Tween-80 96 % of control | [1] 107 % of control | dose: 200.0 mg/kg/injection, schedule: Q01DX009 (ip), vehicle: saline with Tween-80 93 % of control | [2] 93 % of control | dose: 400.0 mg/kg/injection, schedule: Q01DX009 (ip), vehicle: saline with Tween-80 93 % of control | dose: 400.0 mg/kg/injection, schedule: Q04DX003 (ip), vehicle: saline with Tween-80 98 % of control

O=S1ON=C(c2ccccc2)N1c1ccccc1Cl (configuration not stated)
inactive: [6] 93 % of control | [7] 93 % of control | [8] 88 % of control

CCc1c(CC(=O)O)c2cc(C)ccc2n1Cc1ccc(Cl)cc1
inactive: dose: 12.5 mg/kg/injection, schedule: Q01DX Z (ip), vehicle: saline 95 % of control and 96 % of control | dose: 24.0 mg/kg/injection, schedule: Q01DX Z (ip), vehicle: carboxymethylcellulose (CMC) 91 % of control | dose: 25.0 mg/kg/injection, schedule: Q01DX Z (ip), vehicle: saline 103 % of control and 100 % of control | dose: 36.0 mg/kg/injection, schedule: Q01DX Z (ip), vehicle: carboxymethylcellulose (CMC) 92 % of control | dose: 50.0 mg/kg/injection, schedule: Q01DX Z (ip), vehicle: saline 113 % of control and 102 % of control | dose: 54.0 mg/kg/injection, schedule: Q01DX Z (ip), vehicle: carboxymethylcellulose (CMC) 95 % of control | dose: 100.0 mg/kg/injection, schedule: Q01DX Z (ip), vehicle: saline 95 % of control and 93 % of control | dose: 162.0 mg/kg/injection, schedule: Q01DX Z (ip), vehicle: carboxymethylcellulose (CMC) 94 % of control | dose: 324.0 mg/kg/injection, schedule: Q01DX Z (ip), vehicle: carboxymethylcellulose (CMC) 88 % of control

C=CCc1ccc(OCCOCCN(C/C=C(\C)CCC=C(C)C)C/C=C(\C)CCC=C(C)C)c(OC)c1
inactive: dose: 25.0 mg/kg/injection, schedule: Q04DX002 (ip), vehicle: Klucel (hydroxypropylcellulose) (HPC) 108 % of control | dose: 50.0 mg/kg/injection, schedule: Q04DX002 (ip), vehicle: Klucel (hydroxypropylcellulose) (HPC) 96 % of control | [9] 99 % of control

O=c1[nH]c2ccccc2cc1Br
inactive: dose: 100.0 mg/kg/injection, schedule: Q01DX001 (ip), vehicle: other 96 % of control | dose: 200.0 mg/kg/injection, schedule: Q01DX001 (ip), vehicle: other 96 % of control | dose: 400.0 mg/kg/injection, schedule: Q01DX001 (ip), vehicle: other 105 % of control

C=CCC(CC)(C(=O)O)C(=O)O
inactive: dose: 100.0 mg/kg/injection, schedule: Q01DX009 (ip), vehicle: saline 96 % of control | [3] 102 % of control | dose: 200.0 mg/kg/injection, schedule: Q01DX009 (ip), vehicle: saline 93 % of control | [4] 95 % of control | [5] 86 % of control

CCCCCCCCCCCCCCC(CCCCCCCCCCCCCC)C1CCCCC1
inactive: dose: 100.0 mg/kg/injection, schedule: Q01DX001 (ip), vehicle: saline with Tween-80 92 % of control | dose: 200.0 mg/kg/injection, schedule: Q01DX001 (ip), vehicle: saline with Tween-80 95 % of control | dose: 400.0 mg/kg/injection, schedule: Q01DX001 (ip), vehicle: saline with Tween-80 94 % of control

CN(C)N1C(=O)CC2(CCC(C(C)(C)C)CC2)CC1=O
inactive: dose: 50.0 mg/kg/injection, schedule: Q01DX001 (ip), vehicle: carboxymethylcellulose (CMC) 109 % of control | dose: 100.0 mg/kg/injection, schedule: Q01DX001 (ip), vehicle: carboxymethylcellulose (CMC) 95 % of control | dose: 200.0 mg/kg/injection, schedule: Q01DX001 (ip), vehicle: carboxymethylcellulose (CMC) 104 % of control | dose: 400.0 mg/kg/injection, schedule: Q01DX001 (ip), vehicle: carboxymethylcellulose (CMC) 104 % of control

CC(C)(C)NC(=O)Nc1cccc(C(=O)O)c1
inactive: dose: 100.0 mg/kg/injection, schedule: Q01DX009 (ip), vehicle: Klucel (hydroxypropylcellulose) (HPC) 97 % of control | dose: 200.0 mg/kg/injection, schedule: Q01DX009 (ip), vehicle: Klucel (hydroxypropylcellulose) (HPC) 109 % of control | dose: 400.0 mg/kg/injection, schedule: Q01DX009 (ip), vehicle: Klucel (hydroxypropylcellulose) (HPC) 101 % of control

CC(C)N1CCOC1c1ccccc1 (configuration not stated)
inactive: dose: 50.0 mg/kg/injection, schedule: Q01DX009 (ip), vehicle: saline sonified 105 % of control | dose: 100.0 mg/kg/injection, schedule: Q01DX009 (ip), vehicle: saline sonified 105 % of control | [3] 100 % of control | dose: 200.0 mg/kg/injection, schedule: Q01DX009 (ip), vehicle: saline sonified 100 % of control | [4] 96 % of control

CCN(CC)CC(=O)NCC(CCCN1CCCCC1)(c1cccc2ccccc12)C(C)C (configuration not stated)
inactive: dose: 12.5 mg/kg/injection, schedule: Q01DX009 (ip), vehicle: saline 91 % of control | dose: 12.5 mg/kg/injection, schedule: Q04DX003 (ip), vehicle: saline 98 % of control | dose: 25.0 mg/kg/injection, schedule: Q01DX009 (ip), vehicle: saline 90 % of control | dose: 25.0 mg/kg/injection, schedule: Q04DX003 (ip), vehicle: saline 95 % of control | dose: 50.0 mg/kg/injection, schedule: Q01DX009 (ip), vehicle: saline 86 % of control | dose: 50.0 mg/kg/injection, schedule: Q04DX003 (ip), vehicle: saline 96 % of control

CC1C[N+](C)(C)N=C1[O-] (configuration not stated)
inactive: [10] 104 % of control | [11] 98 % of control | [12] 95 % of control

O=Cc1[nH]c(=S)[nH]c(=O)c1Cc1ccc(Cl)cc1
inactive: [10] 96 % of control | [11] 93 % of control | [12] 96 % of control

Cc1cccc(NC(=S)Nc2ccc(-c3ccc(NC(=S)Nc4cccc(C)c4)cc3)cc2)c1
inactive: dose: 100.0 mg/kg/injection, schedule: Q01DX009 (ip), vehicle: other 104 % of control | dose: 200.0 mg/kg/injection, schedule: Q01DX009 (ip), vehicle: other 106 % of control | dose: 400.0 mg/kg/injection, schedule: Q01DX009 (ip), vehicle: other 96 % of control

Cc1ccc(S(=O)(=O)OCC2C(COS(=O)(=O)c3ccc(C)cc3)C3C=CC2C32CC2)cc1 (configuration not stated)
inactive: [9] 105 % of control | dose: 200.0 mg/kg/injection, schedule: Q04DX002 (ip), vehicle: Klucel (hydroxypropylcellulose) (HPC) 110 % of control | dose: 400.0 mg/kg/injection, schedule: Q04DX002 (ip), vehicle: Klucel (hydroxypropylcellulose) (HPC) 102 % of control

CN(C)CC/C(=N\N=C(N)N)c1ccccc1
inactive: dose: 15.0 mg/kg/injection, schedule: Q01DX Z (ip), vehicle: methylcellulose (MC) 96 % of control | dose: 30.0 mg/kg/injection, schedule: Q01DX Z (ip), vehicle: methylcellulose (MC) 90 % of control | dose: 30.0 mg/kg/injection, schedule: Q01DX Z (oral), vehicle: methylcellulose (MC) 89 % of control | dose: 60.0 mg/kg/injection, schedule: Q01DX Z (ip), vehicle: methylcellulose (MC) 94 % of control | dose: 60.0 mg/kg/injection, schedule: Q01DX Z (oral), vehicle: methylcellulose (MC) 91 % of control

CCCCCC(=O)NCC(=O)N1CCC(C(=O)NCCCCC(=O)OC)C1 (configuration not stated)
inactive: [3] 97 % of control | [4] 94 % of control | [5] 86 % of control

CCCCCCCCCCCCCCCCCCCCC1CC(=O)OC1=O (configuration not stated)
inactive: [6] 91 % of control | [7] 92 % of control | [8] 91 % of control

NCCCC(=O)NC(Cc1cnc[nH]1)C(=O)O (configuration not stated)
inactive: [10] 95 % of control | [11] 97 % of control | [12] 92 % of control

From PubChem BioAssay AID248 (DTP/NCI, 2004)
